# Data published in PubChem BioAssay (NCI).
#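 Compound exposure: 48 hours, 5 concentrations, 96-well plates. Here, GI50 denotes the concentration required for 50% inhibition of growth. TGI: total growth inhibition.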
# Key:
# Assay in all cases: inhibition of tumour cell growth, NCI panel, 48 h
# MOLT-4 leukemia = test system: MOLT-4 leukemia
# OVCAR-5 ovarian = test system: OVCAR-5 ovarian
# RPMI-8226 leukemia = test system: RPMI-8226 leukemia
# IGROV1 ovarian = test system: IGROV1 ovarian
# HOP-92 NSCLC = test system: HOP-92 NSCLC
# M14 melanoma = test system: M14 melanoma
# A498 renal = test system: A498 renal
# HCT-15 colon = test system: HCT-15 colon
# HS 578T breast = test system: HS 578T breast
# CAKI-1 renal = test system: CAKI-1 renal
# SW-620 colon = test system: SW-620 colon
# SR leukemia = test system: SR leukemia
# OVCAR-8 ovarian = test system: OVCAR-8 ovarian
# SNB-75 CNS = test system: SNB-75 CNS
# SF-295 CNS = test system: SF-295 CNS
# SK-OV-3 ovarian = test system: SK-OV-3 ovarian
# COLO 205 colon = test system: COLO 205 colon
# MDA-MB-231 breast = test system: MDA-MB-231 breast
# OVCAR-3 ovarian = test system: OVCAR-3 ovarian
# HCC-2998 colon = test system: HCC-2998 colon
# UO-31 renal = test system: UO-31 renal
# HT29 colon = test system: HT29 colon
# U251 CNS = test system: U251 CNS
# UACC-257 melanoma = test system: UACC-257 melanoma
# SF-268 CNS = test system: SF-268 CNS
# DU-145 prostate = test system: DU-145 prostate
# NCI-H522 lung = test system: NCI-H522 lung
# NCI-H23 lung = test system: NCI-H23 lung
# SK-MEL-28 melanoma = test system: SK-MEL-28 melanoma
# SK-MEL-5 melanoma = test system: SK-MEL-5 melanoma
compound,measurement,setting,value
Cn1cc(-c2cc(N)n3nc(-c4c[nH]c5ccccc45)cc3n2)c2ccccc21,TGI,MOLT-4 leukemia,8.28 µM
same,GI50,OVCAR-5 ovarian,2050 nM
same,TGI,OVCAR-5 ovarian,4.64 µM
same,GI50,RPMI-8226 leukemia,2510 nM
same,TGI,RPMI-8226 leukemia,6.95 µM
same,GI50,IGROV1 ovarian,2640 nM
same,TGI,IGROV1 ovarian,6.84 µM
same,GI50,HOP-92 NSCLC,2290 nM
same,TGI,HOP-92 NSCLC,5.47 µM
same,GI50,M14 melanoma,1790 nM
same,TGI,M14 melanoma,3.66 µM
same,GI50,A498 renal,7.63 µM
same,TGI,A498 renal,20.8 µM
same,GI50,HCT-15 colon,1640 nM
same,TGI,HCT-15 colon,3.3 µM
same,GI50,HS 578T breast,5.53 µM
same,TGI,HS 578T breast,45.4 µM
same,GI50,CAKI-1 renal,1910 nM
same,TGI,CAKI-1 renal,4.48 µM
same,GI50,SW-620 colon,1770 nM
same,TGI,SW-620 colon,3.45 µM
same,GI50,SR leukemia,2010 nM
same,TGI,SR leukemia,39 µM
same,GI50,OVCAR-8 ovarian,2660 nM
same,TGI,OVCAR-8 ovarian,8.25 µM
same,GI50,SNB-75 CNS,7.65 µM
same,TGI,SNB-75 CNS,21.3 µM
same,GI50,SF-295 CNS,1780 nM
same,TGI,SF-295 CNS,3.4 µM
same,GI50,SK-OV-3 ovarian,11.8 µM
same,TGI,SK-OV-3 ovarian,25.6 µM
same,GI50,COLO 205 colon,1720 nM
same,TGI,COLO 205 colon,3.35 µM
same,GI50,MDA-MB-231 breast,1900 nM
same,TGI,MDA-MB-231 breast,3.47 µM
same,GI50,OVCAR-3 ovarian,2100 nM
same,TGI,OVCAR-3 ovarian,4.59 µM
same,GI50,HCC-2998 colon,1790 nM
same,TGI,HCC-2998 colon,3.34 µM
same,GI50,UO-31 renal,1640 nM
same,TGI,UO-31 renal,3.28 µM
same,GI50,HT29 colon,1690 nM
same,TGI,HT29 colon,3.23 µM
same,GI50,U251 CNS,2040 nM
same,TGI,U251 CNS,4.04 µM
same,GI50,UACC-257 melanoma,1840 nM
same,TGI,UACC-257 melanoma,3.45 µM
same,GI50,SF-268 CNS,4.25 µM
same,TGI,SF-268 CNS,20.6 µM
same,GI50,DU-145 prostate,3.61 µM
same,TGI,DU-145 prostate,13.5 µM
same,GI50,NCI-H522 lung,1690 nM
same,TGI,NCI-H522 lung,3.33 µM
same,GI50,NCI-H23 lung,2360 nM
same,TGI,NCI-H23 lung,5.83 µM
same,GI50,SK-MEL-28 melanoma,1660 nM
same,TGI,SK-MEL-28 melanoma,3.03 µM
same,GI50,SK-MEL-5 melanoma,1770 nM
same,TGI,SK-MEL-5 melanoma,3.43 µM
